Experimental data as given in US5328912A (priority 1993, dated 1994).

Molecular target: GABAa receptor
Test: GABAa receptor binding assay (displacement of 3H-RO15-1788, rat cortical tissue homogenate)
Details: 3H-RO15-1788 0.5 nM, 30 min at 4° C., pH 7.4
Method: The pharmaceutical utility of compounds of this invention are indicated by the following assay for GABAa receptor activity.
Assays are carried out as described in Thomas and Tallman (J. Bio. Chem. 156: 9838-9842, J. Neurosci. 3: 433-440, 1983). Rat conical tissue is dissected and homogenized in 25 volumes (w/v) of 0.05M Tris HCl buffer (pH 7.4 at 4° C.). The tissue homogenate is centrifuged in the cold (4°) at 20,000× g for 20'. The supernatant is decanted and the pellet is rehomogenized in the same volume of buffer and again centrifuged at 20,000× g. The supernatant is decanted and the pellet is frozen at -20° C. overnight. The pellet is then thawed and rehomogenized in 25 volume (original wt/vol) of buffer and the procedure is carried out twice. The pellet is finally resuspended in 50 volumes (w/vol of 0.05M Tris HCl buffer (pH 7.4 at […]).
Incubations contain 100 μl of tissue homogenate 100 μl of radioligand 0.5 nM (^3 H-RO15-1788 specific activity 80 Ci/mmol), drug or blocker and buffer to a total volume of 500 μl. Incubations are carried for 30 min at 4° C. then are rapidly filtered through GFB filters to separate free and bound ligand. Filters are washed twice with fresh 0.05M Tris HCl buffer (pH 7.4 at 4° C.) and counted in a liquid scintillation counter. 1.0 μM diazepam is added to some tubes to determine nonspecific binding. Data are collected in triplicate determinations, averaged and % inhibition of total specific binding is calculated. Total Specific Binding=Total-Nonspecific. In some cases, the amounts of unlabeled drugs is varied and total displacement curves of binding are carried out. Data are convened to a form for the calculation of IC50 and Hill Coefficient (nH).

Structure (SMILES): CC(c1ccccc1)N1CCc2[nH]c(=O)n3cc(-c4ccccc4F)nc3c2C1 (racemic) [Compound 21, ±9-(α-Methylbenzyl)-2-(2-fluorophenyl)-7,8,9,10-tetrahydro-imidazo[1,2-c]pyrido[3,4-e] pyrimidin-5(6H)-one]
- IC50: 4.8 nM

Structure (SMILES): O=C(c1ccccc1)N1CCc2[nH]c(=O)n3cc(-c4ccccc4F)nc3c2C1 [Compound 1, 9-Benzoyl-2-(2-fluorophenyl)-7,8,9,10-tetrahydro-imidazo[1,2-c]pyrido[3,4-e]pyrimidin-5(6H)-one]
- IC50: 500 nM

Structure (SMILES): O=c1[nH]c2c(c3nc(-c4ccccc4F)cn13)CN(Cc1ccccc1F)CC2 [Compound 13, 9-(2-Fluorobenzyl)-2-(2-fluorophenyl)-7,8,9,10-tetrahydro-imidazo[1,2-c]pyrido[3,4-e] pyrimidin-5(6H)-one]
- IC50: 2.4 nM

Structure (SMILES): O=c1[nH]c2c(c3nc(-c4cccc(Cl)c4)cn13)CN(Cc1ccccc1)CC2 [Compound 14, 9-Benzyl-2-(3-chlorophenyl)-7,8,9,10-tetrahydro-imidazo[1,2-c]pyrido[3,4-e] pyrimidin-5(6H)-one]
- IC50: 100 nM

Structure (SMILES): O=c1[nH]c2c(c3nc(-c4ccccc4F)cn13)CN(Cc1ccc(F)cc1)CC2 [Compound 22, 9-(4-Fluorobenzyl)-2-(2-fluorophenyl)-7,8,9,10-tetrahydro-imidazo[1,2-c]pyrido[3,4-e]pyrimidin-5(6H)-one]
- IC50: 3.8 nM

Structure (SMILES): CCC(=O)N1CCc2[nH]c(=O)n3cc(-c4ccccc4F)nc3c2C1 [Compound 36, 9-propionyl-2-(2-fluorophenyl)-7,8,9,10-tetrahydro-imidazo[1,2-c]pyrido[3,4-e]pyrimidin-5(6H)-one]
- IC50: 10 nM

Structure (SMILES): O=C(OCc1ccccc1)N1CCc2[nH]c(=O)n3cc(-c4ccccc4F)nc3c2C1 [Compound 44, 9-Carbobenzyloxy-2-(2-fluorophenyl)-7,8,9,10-tetrahydro-imidazo[1,2-c]pyrido[3,4-e]pyrimidin-5(6H)-one]
- IC50: 10 nM

Structure (SMILES): CN1CCc2[nH]c(=O)n3cc(-c4ccccc4F)nc3c2C1 [Compound 49, 9-Methyl-2-(2-fluorophenyl)-7,8,9,10-tetrahydro-imidazo[1,2-c]pyrido[3,4-e]pyrimidin-5(6H)-one]
- IC50: 30 nM
